Read-outs that look alike come from different tables or passages of the source.
Key:
[1] = tested on: alcohol preferring Syrian golden hamsters; test: Ethanol intake suppression (antidipsotropic activity) in alcohol preferring Syrian golden hamsters; settings: for ethanol intake suppression: equivalent doses (0.07 meq/hamster/day), FIG. 1; for ETOH Intake Suppression, %: ethanol-preferring golden hamsters, equivalent doses, i.p.; for suppression of hamster ethanol intake: i.p. dose or equivalent doses
[2] = target: T1, Human Mitochondrial ALDH (ALDH-2) (Homo sapiens, UniProt P05091); test: Inhibition of human mitochondrial ALDH (ALDH-2), competitive and noncompetitive inhibition constants; format: biochemical; settings: for ALDH-2 inhibitory potency, in words: comparison with daidzin, daidzein or another compound
T1 construct: Human, hamster, and rat liver mitochondrial and cytosolic ALDH isozymes were purified as described in Klyosov; from tissue; host or cells: human liver
T1 sequence (P05091 18-517): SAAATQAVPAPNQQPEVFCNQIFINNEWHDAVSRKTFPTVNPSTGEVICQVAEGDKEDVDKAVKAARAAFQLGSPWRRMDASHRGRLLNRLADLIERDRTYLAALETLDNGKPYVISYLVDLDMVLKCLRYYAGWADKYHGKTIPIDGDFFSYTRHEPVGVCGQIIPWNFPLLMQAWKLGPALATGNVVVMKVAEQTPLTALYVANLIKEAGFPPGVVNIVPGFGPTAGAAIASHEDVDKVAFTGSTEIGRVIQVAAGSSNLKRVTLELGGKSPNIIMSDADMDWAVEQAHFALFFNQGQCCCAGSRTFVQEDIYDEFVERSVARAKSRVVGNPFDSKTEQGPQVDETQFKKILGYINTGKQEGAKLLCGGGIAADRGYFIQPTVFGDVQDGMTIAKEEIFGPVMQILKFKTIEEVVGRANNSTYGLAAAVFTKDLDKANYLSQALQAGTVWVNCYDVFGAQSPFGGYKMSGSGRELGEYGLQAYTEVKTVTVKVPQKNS

[3] = tested on: rat liver mitochondria; test: Mitochondria-catalyzed 5-HIAA formation, rat liver mitochondria; settings: same concentration range
[4] = tested on: hamster liver mitochondria (MAO/ALDH pathway, 5-HT as substrate); test: Mitochondria-catalyzed 5-HT metabolism (5-HIAL, 5-HIAA, 5-HT depletion), hamster liver mitochondria; format: biochemical; settings: for inhibition of 5-HIAA formation: isolated hamster liver mitochondria
Description: (§1) Hamster liver mitochondrial preparations were obtained by the well-known method of Johnson & Lardy (see John, D. & Lardy, H. (1967) Meth. Enzymol. 10, 94). The integrity of these mitochondrial preparations, evaluated by measuring their latent glutamate dehydrogenase activity according to the methods of Beaufay, H., and Bendall, D. S., Baudhuin, P. & deDuve, C. (1959) J. Cell Biol. 73, 623-628 before and after the metabolic study, were over 97% and 93%, respectively.
(§2) Reactions were initiated by the addition of mitochondria and allowed to proceed in a 37° C. shaking water bath for 30 min. Reactions were terminated by the addition of 0.05 ml each of ice-cold 1 M HClO4 and 10 mM EDTA. The samples were kept on ice for 1 hour followed by centrifugation (12,000 rpm) in a microcentrifuge (Microspin 24S, Sorvall) for 15 min. DA, 5-HT, and their major metabolites in the supernatant were analyzed directly by HPLC.
The HPLC system used in this study consisted of a BAS Sample Sentinel Autosampler with refrigerated (4° C.) sample compartment, PM80 solvent delivery system, and a LC-26 on-line degasser. The detector is a LC-4C amperometric controller with a CC-5 cross-flow thin-layer (0.005″) electrochemical cell composed of glassy carbon and silver/silver chloride reference electrode (Bioanlytical Systems, Inc., West Lafayette, Ind.). For routine analysis, the potential and sensitivity were set at 650 mV and 20 nA full scale, respectively. Column temperature was maintained with a Waters Temperature Control Module (Waters, Milford, Mass.). DA and 5-HT were analyzed on a BAS phase II ODS-3, 3 μm, 3.2×100 mm column. […] DOPAL, DOPAC, 5-HIAL and 5-HIAA were analyzed on a Beckman ultrasphere ODS-5, 5μ, 4.6×250 mm column. […] Data were collected and analyzed with a Nelson data collection system (Perkin-Elmer) or a Waters 740 Data Module. The effect of a test compound on 5-HIAL or DOPAL accumulation measured at five different concentrations were averaged and presented as % of control.

[5] = tested on: rats; settings: cited from earlier work
[6] = tested on: hamster liver mitochondria (MAO/ALDH pathway, DA as substrate); test: Mitochondria-catalyzed DA metabolism (DOPAC formation), hamster liver mitochondria; format: biochemical; settings: isolated hamster liver mitochondria
Description: as §1
as §2, with “The samples were kept on ice for 1 hour followed by centrifugation (12,000 rpm) in a microcentrifuge (Microspin 24S, Sorvall) for 15 min.” left out
The HPLC system used in this study consisted of a BAS Sample Sentinel Autosampler with refrigerated (4° C.) sample compartment, PM80 solvent delivery system, and a LC-26 on-line degasser. […] DA and 5-HT were analyzed on a BAS phase II ODS-3, 3 μm, 3.2×100 mm column. […] DOPAL, DOPAC, 5-HIAL and 5-HIAA were analyzed on a Beckman ultrasphere ODS-5, 5μ, 4.6×250 mm column. […] Data were collected and analyzed with a Nelson data collection system (Perkin-Elmer) or a Waters 740 Data Module. The effect of a test compound on 5-HIAL or DOPAL accumulation measured at five different concentrations were averaged and presented as % of control.

[7] = target: T1, Human Mitochondrial ALDH (ALDH-2); settings: literature; cited from earlier work
[8] = human mitochondrial ALDH, read-out: ALDH-2 Ki (competitive inhibition constant)
[9] = human mitochondrial ALDH, read-out: ALDH-2 αKi (noncompetitive inhibition constant)

Ki [2, 8] [nM]	Ki [2, 9] [nM]	Compound	ethanol intake suppression [1]	ETOH Intake Suppression, % [1] [%]	also measured
–	–	O=c1c(-c2ccc(O)cc2)coc2cc(OCCC3OCCCO3)ccc12 [Compound 8]	−30%	32	–
9	140	O=C(O)CCCCCCOc1ccc2c(=O)c(-c3ccc(O)cc3)coc2c1 [Compound 4, 7-O-[ω-carboxyhexyl]-daidzein]	–	69	suppression of hamster ethanol intake [1]: about 70%
1060	10600	O=C(CCl)Oc1ccc2c(=O)c(-c3ccc(O)cc3)coc2c1 [Compound 16, 7-O-daidzein-2-chloroacetate]	–	–	ALDH-2 inhibitory potency, in words [2]: less potent inhibitors relative to daidzin
–	80	CC[N+](CC)(CC)CCCCCCOc1ccc2c(=O)c(-c3ccc(O)cc3)coc2c1 [Compound 11, 7-O-(triethyl-6-aminohexyl)-daidzein]	–	–	Ki ([2]; read-out: Ki, human ALDH-2): 5 nM
36	600	NCCCCCCOc1ccc2c(=O)c(-c3ccc(O)cc3)coc2c1 [Compound 13, 7-O-(6-aminohexyl)-daidzein]	did not suppress ethanol intake	–	–
–	–	O=c1c(-c2ccc(O)cc2)coc2cc(O)cc(O)c12 [genestein]	did not suppress ethanol intake	–	–
–	–	O=c1c(-c2ccc(O)cc2)coc2cc(O)ccc12 [Compound 1, daidzein]	−30%	32	suppression of hamster ethanol intake [1]: 32%
4	50	O=C(O)CCCCCCCCCOc1ccc2c(=O)c(-c3ccc(O)cc3)coc2c1 [Compound 5]	–	84	–
35000	270000	O=c1cc(-c2ccccc2)oc2c(O)c(O)ccc12 [Compound 22, 7,8-Dihydroxyflavone]	did not suppress ethanol intake	0	suppression of hamster ethanol intake [1]: do not exert any significant effect on ethanol intake
–	70	O=c1c(-c2ccc(O)cc2)coc2cc(OCCCCCCBr)ccc12 [Compound 10, 7-O-(6-bromohexyl)-daidzein]	only marginally active	14	Ki ([2]; read-out: Ki, human ALDH-2): 3 nM
–	–	O=C(O)CCCCCCCCCCOc1ccc2c(=O)c(-c3ccc(O)cc3)coc2c1 [Compound 6]	–	86	–
35000	110000	O=c1cc(-c2ccccc2)oc2cc(O)cc(O)c12 [Compound 21, Chrysin, reference compound]	–	0	–
–	–	O=C(O)CCCCCOc1ccc2c(=O)c(-c3ccc(O)cc3)coc2c1 [Compound 3, 7-O-[ω-carboxypentyl]-daidzein]	–	70	suppression of hamster ethanol intake [1]: about 70%
–	–	O=c1c(-c2ccc(O)cc2)coc2c([C@@H]3O[C@H](CO)[C@@H](O)[C@H](O)[C@H]3O)c(O)ccc12 [Compound 20, Puerarine]	–	0	suppression of ethanol consumption in hamsters, in words ([1]; hamsters): not hamsters; suppression of hamster ethanol intake [1]: do not exert any significant effect on ethanol intake; inhibition of 5-HIAA formation [3]: does inhibit 5-HIAA formation; inhibition of 5-HIAA formation [4]: does not inhibit 5-HIAA formation; suppression of ethanol consumption in rats [5]: suppresses ethanol consumption in rats
1800	20000	O=C(CBr)Oc1ccc2c(=O)c(-c3ccc(O)cc3)coc2c1 [Compound 17, 7-O-daidzein-2-bromoacetate]	–	–	ALDH-2 inhibitory potency, in words [2]: less potent inhibitors relative to daidzin
–	–	O=c1c(-c2ccc(O)cc2)coc2cc(O[C@@H]3O[C@H](CO)[C@@H](O)[C@H](O)[C@H]3O)ccc12 [Compound 2, daidzin]	> 60%	64	suppression of hamster ethanol intake [1]: 64%; effect on mitochondria-catalyzed 5-HT depletion ([4]; at concentrations that significantly inhibit 5-HIAA formation): little or no effect; inhibition of 5-HIAA formation [4]: potently inhibit the formation of 5-hydroxyindole-3-acetic acid (5-HIAA); inhibition of DOPAC formation [6]: potently inhibit; suppression of ethanol consumption in rats [5]: confirmed; inhibition of human mitochondrial aldehyde dehydrogenase (ALDH-2) [7]: potent and selective inhibitor
–	–	C=CCOc1ccc2c(=O)c(-c3ccc(O)cc3)coc2c1 [allyl]	did not suppress ethanol intake	–	–
80	1600	CC[N+](CC)(CC)CCOc1ccc2c(=O)c(-c3ccc(O)cc3)coc2c1 [Compound 15, 7-O-(triethyl-6-aminoethyl)-daidzein]	–	–	–

Compound	Ki [2, 8] [nM]	Ki [2, 9] [nM]	ethanol intake suppression [1]	ETOH Intake Suppression, % [1] [%]	also measured
CN(C)CCC(=O)Oc1ccc2c(=O)c(-c3ccc(O)cc3)coc2c1 [Compound 18, 7-O-daidzein-3-dimethylaminopropionate]	1750	24000	–	–	ALDH-2 inhibitory potency, in words [2]: less potent inhibitors relative to daidzin
CC(Br)CCCCC(=O)Oc1ccc2c(=O)c(-c3ccc(O)cc3)coc2c1 (centres unmarked) [Compound 14, 7-O-daidzein-6-bromoheptanoate]	20	260	–	–	ALDH-2 inhibitory potency, in words [2]: less potent than 7-O-(6-bromohexyl)-daidzein
CCOc1ccc2c(=O)c(-c3ccc(O)cc3)coc2c1 [Compound 7]	35	560	did not suppress ethanol intake	–	–
